Experimental data: ChEMBL document CHEMBL4184252, “Synthesis of novel multivalent fluorescent inhibitors with high affinity to prostate cancer and their biological evaluation” (Bioorg Med Chem Lett, 2018); call rule not given here

Tests used:
[1] = Drug distribution in heart of BALB/c nude mouse xenografted with human 22Rv1 cells at 10 nmol, iv measured 1 to 24 hrs after post dose by fluorescence imaging method; format: ADME, organism-based; settings: in vivo
[2] = target: Glutamate carboxypeptidase 2 (Homo sapiens, UniProt Q04609); experiment: Inhibition of PSMA in human LNCaP cell lysates incubated for 2 hrs in presence of N-acetylaspartylglutamate by Amplex red glutamic acid/glutamate oxidase assay
[3] = Drug distribution in lung of BALB/c nude mouse xenografted with human 22Rv1 cells at 10 nmol, iv measured 1 to 24 hrs after post dose by fluorescence imaging method; format: ADME, organism-based; settings: in vivo
[4] = Drug distribution in spleen of BALB/c nude mouse xenografted with human 22Rv1 cells at 10 nmol, iv measured 1 to 24 hrs after post dose by fluorescence imaging method; format: ADME, organism-based; settings: in vivo
[5] = Drug distribution in muscle of BALB/c nude mouse xenografted with human 22Rv1 cells at 10 nmol, iv measured 1 to 24 hrs after post dose by fluorescence imaging method; format: ADME, organism-based, Muscle tissue; settings: in vivo
[6] = Drug distribution in tumor of BALB/c nude mouse xenografted with human 22Rv1 cells at 10 nmol, iv measured 1 to 24 hrs after post dose by fluorescence imaging method; format: ADME, organism-based, Neoplasm; settings: in vivo
[7] = Drug distribution in liver of BALB/c nude mouse xenografted with human 22Rv1 cells at 10 nmol, iv measured 1 to 24 hrs after post dose by fluorescence imaging method; format: ADME, organism-based; settings: in vivo
[8] = Drug distribution in tumor of BALB/c nude mouse xenografted with human 22Rv1 cells at 10 nmol, iv measured 1 to 24 hrs after post dose co-treated with 1 umol DCIBZL by fluorescence imaging method; format: ADME, organism-based, Neoplasm; settings: in vivo
[9] = Drug distribution in liver of BALB/c nude mouse xenografted with human 22Rv1 cells at 10 nmol, iv measured 1 to 24 hrs after post dose co-treated with 1 umol DCIBZL by fluorescence imaging method; format: ADME, organism-based; settings: in vivo

Glutamate carboxypeptidase 2, sequence (Q04609 whole entry): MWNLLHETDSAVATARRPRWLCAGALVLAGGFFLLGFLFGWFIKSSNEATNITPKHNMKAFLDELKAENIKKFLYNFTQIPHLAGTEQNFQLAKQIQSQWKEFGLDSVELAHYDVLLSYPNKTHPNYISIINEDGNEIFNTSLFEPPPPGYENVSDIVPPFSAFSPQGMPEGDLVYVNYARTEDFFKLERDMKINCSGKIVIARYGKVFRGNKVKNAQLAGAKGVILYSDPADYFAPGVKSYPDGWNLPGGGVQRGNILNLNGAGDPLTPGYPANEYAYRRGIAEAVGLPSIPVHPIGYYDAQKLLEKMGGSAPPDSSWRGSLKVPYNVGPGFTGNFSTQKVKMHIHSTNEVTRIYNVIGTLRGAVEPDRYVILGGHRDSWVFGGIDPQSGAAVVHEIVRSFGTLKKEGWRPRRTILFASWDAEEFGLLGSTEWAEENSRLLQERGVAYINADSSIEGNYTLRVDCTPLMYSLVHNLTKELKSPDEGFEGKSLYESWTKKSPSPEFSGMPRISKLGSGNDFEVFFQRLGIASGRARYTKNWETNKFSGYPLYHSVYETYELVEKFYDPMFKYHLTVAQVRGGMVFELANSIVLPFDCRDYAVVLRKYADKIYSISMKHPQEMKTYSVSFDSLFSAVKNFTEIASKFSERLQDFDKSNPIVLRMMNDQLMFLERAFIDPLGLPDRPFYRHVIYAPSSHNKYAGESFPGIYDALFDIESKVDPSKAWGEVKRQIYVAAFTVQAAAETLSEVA

Row | Drug uptake [1] | Ki [2] [nM] | Drug uptake [3] | Drug uptake [4] | Drug uptake [5] | Drug uptake [6] | Drug uptake [7] | Drug uptake [8] | Drug uptake [9] | SMILES
1 | Not Active | 0.58 | Not Active | Not Active | Not Active | Active | Active | Not Active | Not Active | CCN1/C(=C/C=C/C=C/C2=[N+](CCCCCC(=O)NCCCC(=O)NCCCC[C@H](NC(=O)N[C@@H](CCC(=O)O)C(=O)O)C(=O)O)c3ccc4c(S(=O)(=O)[O-])cc(S(=O)(=O)O)cc4c3C2(C)C)C(C)(C)c2c1ccc1c(S(=O)(=O)O)cc(S(=O)(=O)O)cc21
2 | Not Active | 0.38 | Not Active | Not Active | Not Active | Active | Active |  |  | CCN1/C(=C/C=C/C=C/C2=[N+](CCCCCC(=O)NCCCN(CC(=O)Nc3ccc(C(=O)NCCCC[C@H](NC(=O)N[C@@H](CCC(=O)O)C(=O)O)C(=O)O)cc3)CC(=O)Nc3ccc(C(=O)NCCCC[C@H](NC(=O)N[C@@H](CCC(=O)O)C(=O)O)C(=O)O)cc3)c3ccc4c(S(=O)(=O)[O-])cc(S(=O)(=O)O)cc4c3C2(C)C)C(C)(C)c2c1ccc1c(S(=O)(=O)O)cc(S(=O)(=O)O)cc21
3 | Not Active | 0.14 | Not Active | Not Active | Not Active | Active | Not Active | Not Active | Not Active | CCN1/C(=C/C=C/C=C/C2=[N+](CCCCCC(=O)NCCCC(=O)N[C@@H](CCC(=O)NCCCC[C@H](NC(=O)N[C@@H](CCC(=O)O)C(=O)O)C(=O)O)C(=O)NCCCC[C@H](NC(=O)N[C@@H](CCC(=O)O)C(=O)O)C(=O)O)c3ccc4c(S(=O)(=O)[O-])cc(S(=O)(=O)O)cc4c3C2(C)C)C(C)(C)c2c1ccc1c(S(=O)(=O)O)cc(S(=O)(=O)O)cc21
